Laboratory results: ChEMBL document CHEMBL1201862, “PubChem BioAssay data set” (2004)
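Method: 48-hour compound exposure of cells in 96-well plates, five concentrations, linear interpolation of endpoints. At the GI50, growth is halved.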 The source made the active and inactive calls. Rule as the data show it: active = GI50 up to about 1.1 µM and inactive = higher.

How the values were obtained:
Assay in all cases: DTP human tumour cell line panel, 48 h
786-0 = tested on: 786-0
A498 = tested on: A498
CCRF-CEM = tested on: CCRF-CEM
EKVX = tested on: EKVX
HCT-15 = tested on: HCT-15
HL-60 = tested on: HL-60
Hs-578T = tested on: Hs-578T
MDA-MB-435 = tested on: MDA-MB-435
MDA-N = tested on: MDA-N
NCI-H23 = tested on: NCI-H23
OVCAR-3 = tested on: OVCAR-3
OVCAR-4 = tested on: OVCAR-4
OVCAR-5 = tested on: OVCAR-5
RXF 393 = tested on: RXF 393
SF-268 = tested on: SF-268
SF-295 = tested on: SF-295
SN12C = tested on: SN12C
T47D = tested on: T47D
U-251 = tested on: U-251
UO-31 = tested on: UO-31

Structure (SMILES) | GI50 (786-0) | GI50 (A498) | GI50 (CCRF-CEM) | GI50 (EKVX) | GI50 (HCT-15) [µM] | GI50 (HL-60) | GI50 (Hs-578T) | GI50 (MDA-MB-435) | GI50 (MDA-N) | GI50 (NCI-H23) | GI50 (OVCAR-3) | GI50 (OVCAR-4) | GI50 (OVCAR-5) | GI50 (RXF 393) | GI50 (SF-268) | GI50 (SF-295) | GI50 (SN12C) | GI50 (T47D) | GI50 (U-251) | GI50 (UO-31)
COC(=O)[C@@H]1[C@H](O)CC[C@H]2[C@@]1(C)CC[C@@H](C)[C@]2(COC(C)=O)CC(=O)c1ccoc1 | > 50 µM (inactive) | > 50 µM (inactive) | 16.7 µM (inactive) | > 50 µM (inactive) | > 50 | 17 µM (inactive) | > 50 µM (inactive) | > 50 µM (inactive) | > 50 µM (inactive) | > 50 µM (inactive) | > 50 µM (inactive) | 25.2 µM (inactive) | > 50 µM (inactive) | > 50 µM (inactive) | > 50 µM (inactive) | > 50 µM (inactive) | > 50 µM (inactive) | 28.8 µM (inactive) | > 50 µM (inactive) | > 50 µM (inactive)
Cc1ccc(NC(=O)CC(=O)N2N=C(N(C)c3ccccc3)CC2c2ccccc2)cc1 (stereo not given) | > 100 µM (inactive) | > 100 µM (inactive) | > 100 µM (inactive) | > 100 µM (inactive) | > 100 | > 100 µM (inactive) | > 100 µM (inactive) | > 100 µM (inactive) | > 100 µM (inactive) | > 100 µM (inactive) | > 100 µM (inactive) | 68.5 µM (inactive) | > 100 µM (inactive) | > 100 µM (inactive) | > 100 µM (inactive) | > 100 µM (inactive) | > 100 µM (inactive) | > 100 µM (inactive) | > 100 µM (inactive) | > 100 µM (inactive)
Cc1c(O)nc(/C=C/C(=O)O)nc1C(=O)O | > 100 µM (inactive) | > 100 µM (inactive) | > 100 µM (inactive) | > 100 µM (inactive) | > 100 | > 100 µM (inactive) | > 100 µM (inactive) | > 100 µM (inactive) | > 100 µM (inactive) | > 100 µM (inactive) | > 100 µM (inactive) | > 100 µM (inactive) | > 100 µM (inactive) | > 100 µM (inactive) | > 100 µM (inactive) | > 100 µM (inactive) | > 100 µM (inactive) | > 100 µM (inactive) | > 100 µM (inactive) | > 100 µM (inactive)
CC1=C2C(=CO[C@H](C)[C@H]2C)C(O)=C(C(=O)O)C1=O [CITRININ] | 24.5 µM (inactive) | 0.782 µM (active) | 14.8 µM (inactive) | 18.7 µM (inactive) | 16.9 | 11.1 µM (inactive) | 27.5 µM (inactive) | 27 µM (inactive) | 26.2 µM (inactive) | 20.5 µM (inactive) | 16.7 µM (inactive) | 32.9 µM (inactive) | 59.8 µM (inactive) | 13.2 µM (inactive) | 7 µM (inactive) | 35.8 µM (inactive) | 21.7 µM (inactive) | 29.2 µM (inactive) | 14.6 µM (inactive) | 48.3 µM (inactive)
COc1cc2ccc(=O)oc2cc1O [SCOPOLETIN] | > 100 µM (inactive) | 80.4 µM (inactive) | 30.4 µM (inactive) | 57.5 µM (inactive) | 25.1 | 34.8 µM (inactive) | > 100 µM (inactive) | > 100 µM (inactive) | > 100 µM (inactive) | 69 µM (inactive) | 69.8 µM (inactive) | 101 µM (inactive) | 156 µM (inactive) | 128 µM (inactive) | 92.3 µM (inactive) | 19.7 µM (inactive) | 51.4 µM (inactive) | > 100 µM (inactive) | 24.8 µM (inactive) | 38 µM (inactive)
